Assay results published in patent publication US10336792B2, “Antimicrobial peptide dendrimers” (priority 2014, dated 2019).
Converted amounts (≈) assume the structure as drawn. Positions of bridges follow the written chain, without caps; N, C: chain ends. Non-standard residues stand in square brackets, D forms with d. Residues, ends and D or L forms follow the SMILES beside them. Groups on a side chain read outwards from the residue. Chains are numbered I, II in the order given. *: point of attachment. Octanoyl = CCCCCCCC(=O)*; Dab = NCC[C@H](N)C(=O)O; Dap = NC[C@H](N)C(=O)O

Experiments:
Type in all cases: cell-based
[1] = system: Pseudomonas aeruginosa (strain PA01); assay: microbe, parasite or virus in culture; conditions: strain
Method in brief: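 Broth microdilution MIC against P. aeruginosa PAO1 in LB: peptides serially diluted by ⅔, bacteria added at OD600 0.001 and incubated 18–24 h at 37 °C. MTT added; MIC is the lowest concentration preventing visible growth.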

[2] = system: Bacillus subtilis (strain BR151); conditions: strain BR151
Method in brief: (§1)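 Broth microdilution MIC in LB; overnight cultures diluted to OD600 0.001 and mixed 1:1 with ⅔-serially diluted samples (stock 1 mg mL^−1 in H2O), 37° C for 18-24 h. MTT (0.1%) added; MIC read by eye as lowest concentration inhibiting visible growth (yellow).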

[3] = system: Escherichia coli (strain DH5α); conditions: DH5α
Method in brief: as §1

SMILES | MIC P. aeruginosa PAO1 [1] | MIC B. subtilis BR151 [2] | MIC E. coli DH5α [3]
CC(C)C[C@H](NC(=O)[C@H](CCCNC(=N)N)NC(=O)[C@H](CNC(=O)[C@H](CC(C)C)NC(=O)[C@H](CCCNC(=N)N)NC(=O)[C@H](CNC(=O)[C@H](CC(C)C)NC(=O)[C@H](CCCNC(=N)N)NC(=O)[C@H](CNC(=O)[C@H](CC(C)C)NC(=O)[C@@H](N)CCCNC(=N)N)NC(=O)[C@H](CC(C)C)NC(=O)[C@@H](N)CCCNC(=N)N)NC(=O)[C@H](CC(C)C)NC(=O)[C@H](CCCNC(=N)N)NC(=O)[C@H](CNC(=O)[C@H](CC(C)C)NC(=O)[C@@H](N)CCCNC(=N)N)NC(=O)[C@H](CC(C)C)NC(=O)[C@@H](N)CCCNC(=N)N)NC(=O)[C@H](CC(C)C)NC(=O)[C@H](CCCNC(=N)N)NC(=O)[C@H](CNC(=O)[C@H](CC(C)C)NC(=O)[C@H](CCCNC(=N)N)NC(=O)[C@H](CNC(=O)[C@H](CC(C)C)NC(=O)[C@@H](N)CCCNC(=N)N)NC(=O)[C@H](CC(C)C)NC(=O)[C@@H](N)CCCNC(=N)N)NC(=O)[C@H](CC(C)C)NC(=O)[C@H](CCCNC(=N)N)NC(=O)[C@H](CNC(=O)[C@H](CC(C)C)NC(=O)[C@@H](N)CCCNC(=N)N)NC(=O)[C@H](CC(C)C)NC(=O)[C@@H](N)CCCNC(=N)N)C(N)=O [MSt-137, (RL)8(BRL)4(BRL)2(BRL)] (I: H-RL[Dap]([Leu-Arg])RL[Dap]RL[Dap]RL-NH2 / II: H-RL[Dap]([Leu-Arg])RL[Dap]RL / III: H-RL[Dap]([Leu-Arg])RL / IV: H-RL[Dap]([Leu-Arg])RL; amide I:6-IV:C, I:9-II:C, II:6-III:C) | 7 µg/mL (≈ 1.5 µM) | 4 µg/mL (≈ 0.858 µM) | 3 µg/mL (≈ 0.644 µM)
CC(C)C[C@H](NC(=O)[C@H](CCN)NC(=O)[C@H](CCCCNC(=O)[C@H](Cc1c[nH]c2ccccc12)NC(=O)[C@H](CCN)NC(=O)[C@H](CCCCNC(=O)[C@H](CC(C)C)NC(=O)[C@@H](N)CCN)NC(=O)[C@H](CC(C)C)NC(=O)[C@@H](N)CCN)NC(=O)[C@H](Cc1c[nH]c2ccccc12)NC(=O)[C@H](CCN)NC(=O)[C@H](CCCCNC(=O)[C@H](CC(C)C)NC(=O)[C@@H](N)CCN)NC(=O)[C@H](CC(C)C)NC(=O)[C@@H](N)CCN)C(=O)NCCCC[C@H](NC(=O)[C@H](CC(C)C)NC(=O)[C@H](CCN)NC(=O)[C@H](CCCCNC(=O)[C@H](Cc1c[nH]c2ccccc12)NC(=O)[C@H](CCN)NC(=O)[C@H](CCCCNC(=O)[C@H](CC(C)C)NC(=O)[C@@H](N)CCN)NC(=O)[C@H](CC(C)C)NC(=O)[C@@H](N)CCN)NC(=O)[C@H](Cc1c[nH]c2ccccc12)NC(=O)[C@H](CCN)NC(=O)[C@H](CCCCNC(=O)[C@H](CC(C)C)NC(=O)[C@@H](N)CCN)NC(=O)[C@H](CC(C)C)NC(=O)[C@@H](N)CCN)C(=O)N[C@@H](CCN)C(=O)N[C@@H](Cc1c[nH]c2ccccc12)C(N)=O [MSt-202, (DabL)8(KDabW)4(KDabL)2(KDabW)] (I: H-[Dab]LK([Leu-Dab])[Dab]WK[Dab]LK[Dab]W-NH2 / II: H-[Dab]LK([Leu-Dab])[Dab]WK[Dab]L / III: H-[Dab]LK([Leu-Dab])[Dab]W / IV: H-[Dab]LK([Leu-Dab])[Dab]W; amide I:6-IV:C, I:9-II:C, II:6-III:C; N-terminus assumed) | 2 µg/mL (≈ 0.447 µM) | 1 µg/mL (≈ 0.223 µM) | 1 µg/mL (≈ 0.223 µM)
CC(C)C[C@H](NC(=O)[C@H](CCN)NC(=O)[C@H](CCCCNC(=O)[C@H](CC(C)C)NC(=O)[C@H](CCN)NC(=O)[C@H](CCCCNC(=O)[C@H](CC(C)C)NC(=O)[C@H](CCN)NC(=O)[C@H](CCCCNC(=O)[C@H](CC(C)C)NC(=O)[C@@H](N)CCN)NC(=O)[C@H](CC(C)C)NC(=O)[C@@H](N)CCN)NC(=O)[C@H](CC(C)C)NC(=O)[C@H](CCN)NC(=O)[C@H](CCCCNC(=O)[C@H](CC(C)C)NC(=O)[C@@H](N)CCN)NC(=O)[C@H](CC(C)C)NC(=O)[C@@H](N)CCN)NC(=O)[C@H](CC(C)C)NC(=O)[C@H](CCN)NC(=O)[C@H](CCCCNC(=O)[C@H](CC(C)C)NC(=O)[C@H](CCN)NC(=O)[C@H](CCCCNC(=O)[C@H](CC(C)C)NC(=O)[C@@H](N)CCN)NC(=O)[C@H](CC(C)C)NC(=O)[C@@H](N)CCN)NC(=O)[C@H](CC(C)C)NC(=O)[C@H](CCN)NC(=O)[C@H](CCCCNC(=O)[C@H](CC(C)C)NC(=O)[C@@H](N)CCN)NC(=O)[C@H](CC(C)C)NC(=O)[C@@H](N)CCN)C(N)=O [MSt-200, (DabL)8(KDabL)4(KDabL)2(KDabL)] (I: H-[Dab]LK([Leu-Dab])[Dab]LK[Dab]LK[Dab]L-NH2 / II: H-[Dab]LK([Leu-Dab])[Dab]LK[Dab]L / III: H-[Dab]LK([Leu-Dab])[Dab]L / IV: H-[Dab]LK([Leu-Dab])[Dab]L; amide I:6-IV:C, I:9-II:C, II:6-III:C; N-terminus assumed) | 3 µg/mL (≈ 0.729 µM) | 2 µg/mL (≈ 0.486 µM) | 2 µg/mL (≈ 0.486 µM)

The next lines start with the values.

MIC P. aeruginosa PAO1 [1] | MIC B. subtilis BR151 [2] | MIC E. coli DH5α [3] | SMILES
8 µg/mL (≈ 1.92 µM) | 7 µg/mL (≈ 1.68 µM) | 21 µg/mL (≈ 5.04 µM) | CC(C)C[C@H](NC(=O)[C@@H](N)CCN)C(=O)NCCCC[C@H](NC(=O)[C@H](CC(C)C)NC(=O)[C@@H](N)CCN)C(=O)N[C@@H](CCN)C(=O)N[C@@H](C)C(=O)NCCCC[C@H](NC(=O)[C@H](C)NC(=O)[C@H](CCN)NC(=O)[C@H](CCCCNC(=O)[C@H](CC(C)C)NC(=O)[C@@H](N)CCN)NC(=O)[C@H](CC(C)C)NC(=O)[C@@H](N)CCN)C(=O)N[C@@H](CCN)C(=O)N[C@@H](Cc1c[nH]c2ccccc12)C(=O)NCCCC[C@H](NC(=O)[C@H](Cc1c[nH]c2ccccc12)NC(=O)[C@H](CCN)NC(=O)[C@H](CCCCNC(=O)[C@H](C)NC(=O)[C@H](CCN)NC(=O)[C@H](CCCCNC(=O)[C@H](CC(C)C)NC(=O)[C@@H](N)CCN)NC(=O)[C@H](CC(C)C)NC(=O)[C@@H](N)CCN)NC(=O)[C@H](C)NC(=O)[C@H](CCN)NC(=O)[C@H](CCCCNC(=O)[C@H](CC(C)C)NC(=O)[C@@H](N)CCN)NC(=O)[C@H](CC(C)C)NC(=O)[C@@H](N)CCN)C(=O)N[C@@H](CCN)C(=O)N[C@@H](Cc1c[nH]c2ccccc12)C(N)=O [MSt-207, (DabL)8(KDabA)4(KDabW)2(KDabW)] (I: H-[Dab]LK([Leu-Dab])[Dab]AK[Dab]WK[Dab]W-NH2 / II: H-[Dab]LK([Leu-Dab])[Dab]AK[Dab]W / III: H-[Dab]LK([Leu-Dab])[Dab]A / IV: H-[Dab]LK([Leu-Dab])[Dab]A; amide I:6-IV:C, I:9-II:C, II:6-III:C; N-terminus assumed)
3 µg/mL (≈ 0.683 µM) | 2 µg/mL (≈ 0.455 µM) | 2 µg/mL (≈ 0.455 µM) | CC(C)C[C@H](NC(=O)[C@@H](N)CCN)C(=O)NCCCC[C@H](NC(=O)[C@H](CC(C)C)NC(=O)[C@@H](N)CCN)C(=O)N[C@@H](CCN)C(=O)N[C@@H](Cc1c[nH]c2ccccc12)C(=O)NCCCC[C@H](NC(=O)[C@H](Cc1c[nH]c2ccccc12)NC(=O)[C@H](CCN)NC(=O)[C@H](CCCCNC(=O)[C@H](CC(C)C)NC(=O)[C@@H](N)CCN)NC(=O)[C@H](CC(C)C)NC(=O)[C@@H](N)CCN)C(=O)N[C@@H](CCN)C(=O)N[C@@H](C)C(=O)NCCCC[C@H](NC(=O)[C@H](C)NC(=O)[C@H](CCN)NC(=O)[C@H](CCCCNC(=O)[C@H](Cc1c[nH]c2ccccc12)NC(=O)[C@H](CCN)NC(=O)[C@H](CCCCNC(=O)[C@H](CC(C)C)NC(=O)[C@@H](N)CCN)NC(=O)[C@H](CC(C)C)NC(=O)[C@@H](N)CCN)NC(=O)[C@H](Cc1c[nH]c2ccccc12)NC(=O)[C@H](CCN)NC(=O)[C@H](CCCCNC(=O)[C@H](CC(C)C)NC(=O)[C@@H](N)CCN)NC(=O)[C@H](CC(C)C)NC(=O)[C@@H](N)CCN)C(=O)N[C@@H](CCN)C(=O)N[C@@H](Cc1c[nH]c2ccccc12)C(N)=O [MSt-206, (DabL)8(KDabW)4(KDabA)2(KDabW)] (I: H-[Dab]LK([Leu-Dab])[Dab]WK[Dab]AK[Dab]W-NH2 / II: H-[Dab]LK([Leu-Dab])[Dab]WK[Dab]A / III: H-[Dab]LK([Leu-Dab])[Dab]W / IV: H-[Dab]LK([Leu-Dab])[Dab]W; amide I:6-IV:C, I:9-II:C, II:6-III:C; N-terminus assumed)
1 µg/mL (≈ 0.209 µM) | 4 µg/mL (≈ 0.835 µM) | 1 µg/mL (≈ 0.209 µM) | CCCCCCCC(=O)NCCCC[C@H](NC(=O)[C@H](CC(C)C)NC(=O)[C@H](CCCCN)NC(=O)[C@H](CCCCNC(=O)[C@H](CC(C)C)NC(=O)[C@H](CCCCN)NC(=O)[C@H](CCCCNC(=O)[C@H](CC(C)C)NC(=O)[C@H](CCCCN)NC(=O)[C@H](CCCCNC(=O)[C@H](CC(C)C)NC(=O)[C@@H](N)CCCCN)NC(=O)[C@H](CC(C)C)NC(=O)[C@@H](N)CCCCN)NC(=O)[C@H](CC(C)C)NC(=O)[C@H](CCCCN)NC(=O)[C@H](CCCCNC(=O)[C@H](CC(C)C)NC(=O)[C@@H](N)CCCCN)NC(=O)[C@H](CC(C)C)NC(=O)[C@@H](N)CCCCN)NC(=O)[C@H](CC(C)C)NC(=O)[C@H](CCCCN)NC(=O)[C@H](CCCCNC(=O)[C@H](CC(C)C)NC(=O)[C@H](CCCCN)NC(=O)[C@H](CCCCNC(=O)[C@H](CC(C)C)NC(=O)[C@@H](N)CCCCN)NC(=O)[C@H](CC(C)C)NC(=O)[C@@H](N)CCCCN)NC(=O)[C@H](CC(C)C)NC(=O)[C@H](CCCCN)NC(=O)[C@H](CCCCNC(=O)[C@H](CC(C)C)NC(=O)[C@@H](N)CCCCN)NC(=O)[C@H](CC(C)C)NC(=O)[C@@H](N)CCCCN)C(N)=O [MSt-265, (KL)8(KKL)4(KKL)2(KKLKC8)] (I: H-KLK([Leu-Lys])KLKKLKKLK(Octanoyl)-NH2 / II: H-KLK([Leu-Lys])KLKKL / III: H-KLK([Leu-Lys])KL / IV: H-KLK([Leu-Lys])KL; amide I:6-IV:C, I:9-II:C, II:6-III:C)
